Assay in all cases: inhibition of tumour cell growth, NCI panel, 48 h
In experiment [1] the test system is CAKI-1 renal.
Experiment [2] relates to HCT-116 colon.
Experiment [3] deals with HOP-92 NSCLC.
The subject of experiment [4] is NCI-H226 lung.
The test system of experiment [5] is NCI-H23 lung.
For experiment [6], the system named is RPMI-8226 leukemia.
The subject of experiment [7] is SK-MEL-2 melanoma.
Experiment [8] relates to SK-MEL-28 melanoma.
The test system of experiment [9] is SK-OV-3 ovarian.
For experiment [10], the system named is UACC-62 melanoma.

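96-well plates; 48 h exposure; 5 concentrations. Endpoints by linear interpolation between flanking doses. Not reached: highest tested concentration assigned. Abbreviation: GI50, concentration required for 50% inhibition of growth. TGI marks complete inhibition of growth.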 Where only a bound is given, the exact number is not on record here.

Regarding `NC(N)=NCCCC(=O)O`, the TGI in experiment [1], in experiment [2], in experiment [3], in experiment [4], in [5] and in experiment [6] was > 100 µM throughout. The TGI in experiment [7], in experiment [8], in [9] and in experiment [10] was > 100 µM in each case.
On to `CCn1c(O)c(/C=N/NC(=O)C(C)c2ccc(CC(C)C)cc2)sc1=S` (centres undefined), for which the GI50 in experiment [1] is 0.331 µM; in experiment [2], 0.397 µM; in experiment [3] it was 0.806 µM; in experiment [4] it was 0.797 µM; in experiment [5], 0.673 µM; in [6] it was 0.425 µM. Besides, the GI50 in experiment [7] was 3.19 µM; in experiment [8], 1 µM; in [9], 0.666 µM; in [10], 0.435 µM. Further, the TGI was > 33.7 µM in experiment [1]; > 36.9 µM in experiment [2]; 9.65 µM in experiment [3]; > 21.4 µM in experiment [4]; > 41.1 µM in experiment [5]; 4.83 µM in experiment [6]. Besides, the TGI was > 49.8 µM in [7], > 45.8 µM in experiment [8], > 100 µM in experiment [9] and 15 µM in experiment [10].
For `Cc1nnc(Nc2ccc(NC(=O)Nc3ccc(Cl)cc3)cc2)c2ccccc12`, the GI50 is 3.49 µM in experiment [1]; 1.86 µM in [2]; 2.56 µM in experiment [3]; 3.61 µM in [4]; 2.38 µM in experiment [5]; 2.6 µM in experiment [6]. Besides, the GI50 in experiment [7] was 2.22 µM; in experiment [8], 1.63 µM; in [9], 2.61 µM; in [10], 1.75 µM. The TGI in [1] is 12.8 µM; in experiment [2], 3.59 µM; in experiment [3], 6.06 µM; in experiment [4] it was 15.9 µM; in [5], 6.31 µM; in experiment [6], 6.48 µM. The TGI in experiment [7] stood at 4.59 µM; in experiment [8], 3.2 µM; in experiment [9], 6.59 µM; in [10], 3.59 µM.
As to `COc1ccc(-c2ccc(=O)oc2C#Cc2cc(OC)c(OC)c(OC)c2)cc1O`, the GI50 in [1] is 0.621 µM; in experiment [2], 0.249 µM; in experiment [3], 0.999 µM; in experiment [4] it was 1.42 µM; in experiment [5] it was 1.17 µM; in experiment [6], 0.23 µM. In addition, the GI50 in experiment [7] is 1.31 µM; in [8] it was 3.25 µM; in experiment [9] it was 0.318 µM; in experiment [10], 0.35 µM. Moreover, the TGI in experiment [1] was > 100 µM; in [2], > 91.9 µM; in [3], 9.87 µM; in experiment [4] it was > 100 µM; in experiment [5], > 100 µM; in experiment [7] it was > 22.1 µM. Also, the results for the TGI in experiment [8], in [9] and in experiment [10] were > 100 µM, 5.65 µM and > 100 µM, respectively.
With `COc1cc(N(CCC#N)CCC#N)ccc1/C(N=Nc1ccc(Cl)cc1)=N/NC(=O)c1cc(Br)ccc1O`, the GI50 in [1] was 51.2 µg/mL; in experiment [2], 53.2 µg/mL; in [3], > 150 µg/mL; in [4], 32.4 µg/mL; in experiment [5], > 150 µg/mL; in experiment [6], 102 µg/mL. Moreover, the GI50 in [7] was 146 µg/mL; in [8], > 150 µg/mL; in experiment [9], 90.8 µg/mL; in experiment [10], 112 µg/mL. The TGI in experiment [1] was > 150 µg/mL; in [2], > 150 µg/mL; in [3] it was > 150 µg/mL; in experiment [4], 128 µg/mL; in [5] it was > 150 µg/mL; in [6], > 150 µg/mL. The TGI in experiment [7], in experiment [8], in experiment [9] and in experiment [10] was > 150 µg/mL in each case.
For the molecule `CC(C)(C)c1cc(C(P(=O)(O)O)P(=O)(O)O)cc(C(C)(C)C)c1O`, the TGI in [1], in experiment [2], in [3], in [4], in experiment [5] and in experiment [6] was > 100 µM throughout. The TGI in experiment [7], in [8], in [9] and in [10] was > 100 µM in each case.
For the molecule `CC(NCCC(c1ccccc1)c1ccccc1)c1ccccc1` (centres undefined), the GI50 in experiment [1] is 2.73 µM; in [2], 1.66 µM; in [3] it was 1.05 µM; in experiment [4], 2.78 µM; in experiment [5], 2.03 µM; in experiment [6], 1.92 µM. Moreover, the GI50 in experiment [7] is 1.9 µM; in experiment [8], 1.76 µM; in experiment [9], 1.65 µM; in experiment [10], 1.62 µM. In addition, the TGI in experiment [1] amounted to 9.52 µM; in experiment [2], 3.08 µM; in [3], 3.56 µM; in [4] it was 13.8 µM; in [5], 7.81 µM; in experiment [6] it was 4.83 µM. For the same molecule, the TGI in experiment [7] was determined as 3.77 µM; in experiment [8], 3.26 µM; in [9], 3.81 µM; in experiment [10], 3.57 µM.
Regarding `COc1ccc2nc3ccccc3c(NCc3ccc(F)cc3)c2c1`, the GI50 in experiment [1] is 1.73 µM; in experiment [2], 1.75 µM; in [3], 1.39 µM; in [4], 1.81 µM; in [5], 1.89 µM; in experiment [6], 1.24 µM. The GI50 is 3.19 µM in experiment [7], 2.9 µM in [8], 2.79 µM in [9] and 3.48 µM in [10]. For the same molecule, the TGI amounted to 7.05 µM in experiment [1]; 6.5 µM in experiment [2]; 6.6 µM in [3]; 9.28 µM in experiment [4]; 8.46 µM in experiment [5]; 3.06 µM in experiment [6]. The TGI in experiment [7] turned out to be 10.4 µM; in experiment [8] it was 9.27 µM; in experiment [9] it was 10.4 µM; in [10], 10.2 µM.
